Results published in patent US20260101897A1, “PLANT ENVIRONMENTAL STRESS TOLERANCE IMPROVEMENT AGENT AND ENVIRONMENTAL STRESS TOLERANCE IMPROVEMENT METHOD” (priority 2022, published 2026).

Legend:
Assay type in all cases: in vivo
[1] = system: strawberry (wild strawberry); experiment: Evaluation Example 14: tolerance to freezing stress, plant mortality; conditions: for Environmental stress suppressing rate: freezing stress Yes
Experimental: EGT (Example 18, Comparative Example 60) or GB (Comparative Examples 59 and 61) was prepared so as to have the concentration shown in Table 14 below. EGT and GB were commercially available products, and pure water was used as a solvent.
5 mL of pure water was added to 9-cm petri dishes on which filter paper was placed, and 10 seeds of strawberry (wild strawberry) were seeded per dish. They were located in a growth chamber set at room temperature of 22° C., and the light period was 16 hours and the dark period was 8 hours. The light conditions were set such that the light intensity was 5000 lx in the central part under irradiation with the fluorescent lamp.
On the 15th day after seeding, pure water in the petri dish was removed, and then 5 mL of EGT or 5 mL of GB was added, and 9 days after that, freezing stress was applied by exposure to an environment of −20° C. for 20 minutes.
The surviving plants were counted 3 days after the freezing stress was applied, and the mortality rate of the plants was evaluated as an index of physiological disorder. The mortality rate and the environmental stress suppressing rate were calculated according to the following formulas.

[2] = system: radish (Akamaru Hatsuka); experiment: Evaluation Example 7: tolerance to drying stress, leaf mortality; conditions: for Leaf mortality rate: test compound 0.5 mM (50 mL), water supply stopped 7 days twice; for Leaf mortality rate / Environmental stress suppressing rate: drying stress Yes; for Environmental stress suppressing rate: test compound 0.5 mM
Experimental: EGT and GB were commercially available products, and pure water was used as a solvent. In a plastic pot having a diameter of 135 mm and a height of 110 mm, 1 kg of granular soil (Kumiai horticultural soil) was placed, and 5 individual radish (Akamaru Hatsuka) was seeded per pot. They were managed in a greenhouse set at room temperature of 25° C. EGT in an amount of 50 mL or GB in an amount of 50 mL was added on the 22nd day after seeding, and water supply was stopped for 7 days. After cultivation under water supply for 7 days, drying stress was applied by stopping water supply for 7 days again. The dead leaves of radish were counted after the drying stress was applied, and the leaf mortality rate was evaluated as an index of physiological disorder. The leaf mortality rate and the environmental stress suppressing rate were calculated according to the following formulas. [formula] [formula]

[3] = system: wheat; experiment: Evaluation Example 10: tolerance to ultraviolet stress, leaf mortality; conditions: for Environmental stress suppressing rate: ultraviolet stress Yes
Experimental: EGT (Examples 12 and 13, Comparative Examples 37 and 38) or GB (Comparative Examples 35, 36, 39, and 40) was prepared so as to have a concentration shown in Table 10 below. EGT and GB were commercially available products, and pure water was used as a solvent.
5 mL of pure water was added to 9-cm petri dishes on which filter paper was placed, and 10 wheat seeds were seeded per petri dish. They were located in a growth chamber set at room temperature of 22° C., and the light period was 16 hours and the dark period was 8 hours. The light conditions were set such that the light intensity was 5000 lx in the central part under irradiation with the fluorescent lamp.
On the 7th day after seeding, pure water in the petri dish was removed, 5 mL of EGT or 5 mL of GB was added to the petri dish, and one day after that, ultraviolet stress was applied by exposure for one hour under irradiation with an ultraviolet lamp (GL-15, manufactured by Toshiba Corporation) with the intensity of ultraviolet radiation of a wavelength of 254 nm set to 550 μW/cm^−2.
The dead leaves were counted 6 days after the ultraviolet stress was applied, and the leaf mortality rate was evaluated as an index of physiological disorder. The leaf mortality rate and the environmental stress suppressing rate were calculated according to the following formulas.

[4] = system: cotton; experiment: Evaluation Example 3: tolerance to drying stress, leaf necrotizing; conditions: for Leaf necrotizing rate: test compound 0.1 mM (50 mL), 4 days after stoppage of water; for Leaf necrotizing rate / Environmental stress suppressing rate: drying stress Yes; for Environmental stress suppressing rate: test compound 0.1 mM
Experimental: EGT and GB were commercially available products, and pure water was used as a solvent.
In a plastic pot having a diameter of 60 mm and a height of 55 mm, 90 mL of granular soil (Kumiai horticultural soil) was placed, and one individual cotton (manufactured by TOHOKU SEED CO., LTD.) was seeded per pot.
They were managed in a greenhouse set at room temperature of 25° C. EGT in an amount of 50 mL or GB in an amount of 50 mL was added on the 23rd day after seeding, and drying stress was applied by stopping water supply for 4 days after 4 days from the addition of EGT or GB.
The leaves were collected 4 days after the stoppage of water and photographed with a digital camera. The photographed pictures of the leaves were analyzed with image analysis software WinROOF (manufactured by MITANI Corporation) to quantify the total leaf area and the green leaf area.
Using the above-described total leaf area and green leaf area, the leaf necrotizing rate after 4 days from the stoppage of water was evaluated. The leaf necrotizing rate and the environmental stress suppressing rate were calculated according to the following formulas.

[5] = system: Arabidopsis thaliana (Col-0); experiment: Evaluation Example 4: tolerance to high temperature stress, plant mortality; conditions: for Environmental stress suppressing rate: high temperature stress Yes
Experimental: EGT (Example 5 and Comparative Example 13) or GB (Comparative Example 12 and Comparative Example 14) was prepared so as to have a concentration shown in Table 4 below. EGT and GB were commercially available products, and pure water was used as a solvent.
In a plastic pot having a diameter of 60 mm and a height of 55 mm, 80 mL of culture soil (manufactured by Hanagokoro Co., Ltd.) was put, and one individual Arabidopsis thaliana (Col-0) was seeded per pot. Plastic deep dishes each having a diameter of 160 mm and a height of 28 mm were prepared, and four pots were respectively placed therein.
They were located in a growth chamber set at room temperature of 22° C., and the light period was 16 hours and the dark period was 8 hours. The light conditions were set such that the light intensity was 5000 lx in the central part under irradiation with the fluorescent lamp. Water supply was conducted from the bottom, and the water level was set at about 5 mm. On the 41st day after seeding, 50 mL of EGT or 50 mL of GB was added, and one day after that, high temperature stress was applied by exposure to an environment of 42° C. for 3 hours.
The surviving plants were counted 12 days after the high temperature stress was applied, and the plant mortality rate was evaluated as an index of physiological disorder. The mortality rate and the environmental stress suppressing rate were calculated according to the following formulas.

[6] = test compound 0.1 mM (5 mL), freezing stress Yes (−20° C. for 20 minutes), 3 days after stress
[7] = test compound 0.1 mM, freezing stress No
[8] = test compound 0.1 mM (5 mL), ultraviolet stress Yes (254 nm, one hour), 6 days after stress
[9] = test compound 0.1 mM, ultraviolet stress No
[10] = test compound 1 mM (5 mL), ultraviolet stress Yes (254 nm, one hour), 6 days after stress
[11] = test compound 1 mM, ultraviolet stress No
[12] = test compound 0.5 mM (50 mL), high temperature stress Yes (42° C. for 3 hours), 12 days after stress
[13] = test compound 0.5 mM, high temperature stress No

SMILES	Mortality rate [1, 6] [%]	Mortality rate [1, 7] [%]	Environmental stress suppressing rate ([1]; test compound 0.1 mM) [%]	Leaf mortality rate [2] [%]	Environmental stress suppressing rate [2] [%]	Leaf mortality rate [3, 8] [%]	Leaf mortality rate [3, 9] [%]	Environmental stress suppressing rate ([3]; test compound 0.1 mM) [%]	Leaf mortality rate [3, 10] [%]	Leaf mortality rate [3, 11] [%]	Environmental stress suppressing rate ([3]; test compound 1 mM) [%]	Leaf necrotizing rate [4] [%]	Environmental stress suppressing rate [4] [%]	Mortality rate [5, 12] [%]	Mortality rate [5, 13] [%]	Environmental stress suppressing rate ([5]; test compound 0.5 mM) [%]	also measured
C[N+](C)(C)[C@@H](Cc1c[nH]c(=S)[nH]1)C(=O)[O-] [EGT, L-(+)-ergothioneine]	29	0	54	17	71	34	1	36	23	0	57	26	50	25	0	67	
C[N+](C)(C)CC(=O)[O-] [GB, glycine betaine, reference compound]	63	0	0	73	0	50	5	6	44	0	17	68	0	75	0	0	mortality rate due to freezing stress, result in words ([1]; 0.1 mM, freezing stress): not suppressed; mortality rate due to drying stress, result in words ([2]; 0.5 mM, drying stress): not suppressed; mortality rate due to ultraviolet stress, result in words ([3]; GB 1 mM and 0.1 mM, ultraviolet stress): hardly suppressed; necrotizing due to drying stress, result in words ([4]; 0.1 mM, drying stress): not suppressed; mortality rate due to high temperature stress, result in words ([5]; 0.5 mM, high temperature stress): not suppressed
